Columns and labels:
[1] = test system: barnyardgrass; assay: Test B pre-/postemergence herbicide test; type: in vivo, Echinochloa crus-galli; settings: for Barnyardgrass plant response rating (0 to 100 scale) / Plant response rating, Barnyardgrass: 0 = no effect, 100 = complete control, preemergence; for Plant response rating, Barnyardgrass / Barnyardgrass plant response rating: visual rating; for Barnyardgrass plant response rating: postemergence, scale 0 (no effect) to 100 (complete control)
Summary of the method: (§1)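 Visual rating, 0 (no effect) to 100 (complete control), versus untreated controls after 13–15 d in greenhouse. Pre- and postemergence applications (postemergence plants 2–18 cm, 1–4 leaves); flooded paddy arm at 2-leaf stage. Compounds in non-phytotoxic solvent plus surfactant.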

[2] = test system: Surinam grass; assay: Test B pre-/postemergence herbicide test; type: in vivo, Urochloa decumbens; settings: for Surinam Grass plant response rating (0 to 100 scale) / Plant response rating, Surinam Grass: 0 = no effect, 100 = complete control, preemergence; for Plant response rating, Surinam Grass / Surinam Grass plant response rating: visual rating; for Surinam Grass plant response rating: postemergence, scale 0 (no effect) to 100 (complete control)
Summary of the method: (§2)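 Seeds were planted and treated preemergence with compounds formulated in a non-phytotoxic solvent mixture containing surfactant, while plants at the 1- to 4-leaf stage (2 to 18 cm) received postemergence sprays. Flooded paddy plants were grown to the 2-leaf stage. After 13 to 15 days in a greenhouse, injury was visually rated 0–100 against untreated controls.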

[3] = test system: cocklebur; assay: Test B pre-/postemergence herbicide test; type: in vivo, Xanthium strumarium; settings: for Cocklebur plant response rating (0 to 100 scale) / Plant response rating, Cocklebur: 0 = no effect, 100 = complete control, preemergence; for Plant response rating, Cocklebur / Cocklebur plant response rating: visual rating; for Cocklebur plant response rating: postemergence, scale 0 (no effect) to 100 (complete control)
Summary of the method: as §1

[4] = test system: corn; assay: Test B pre-/postemergence herbicide test; type: in vivo, Zea mays; settings: for Corn plant response rating (0 to 100 scale) / Plant response rating, Corn: 0 = no effect, 100 = complete control, preemergence; for Plant response rating, Corn / Corn plant response rating: visual rating; for Corn plant response rating: postemergence, scale 0 (no effect) to 100 (complete control)
Summary of the method: as §2

[5] = test system: large crabgrass; assay: Test B pre-/postemergence herbicide test; type: in vivo, Digitaria sanguinalis; settings: for Crabgrass, Large plant response rating (0 to 100 scale) / Plant response rating, Crabgrass, Large: 0 = no effect, 100 = complete control, preemergence; for Plant response rating, Crabgrass, Large / Crabgrass, Large plant response rating: visual rating; for Crabgrass, Large plant response rating: postemergence, scale 0 (no effect) to 100 (complete control)
Summary of the method: as §2

[6] = test system: giant foxtail; assay: Test B pre-/postemergence herbicide test; type: in vivo, Setaria faberi; settings: for Foxtail, Giant plant response rating (0 to 100 scale) / Plant response rating, Foxtail, Giant: 0 = no effect, 100 = complete control, preemergence; for Plant response rating, Foxtail, Giant / Foxtail, Giant plant response rating: visual rating; for Foxtail, Giant plant response rating: postemergence, scale 0 (no effect) to 100 (complete control)
Summary of the method: as §2

[7] = test system: lambsquarters; assay: Test B pre-/postemergence herbicide test; type: in vivo, Chenopodium album; settings: for Lambsquarters plant response rating (0 to 100 scale) / Plant response rating, Lambsquarters: 0 = no effect, 100 = complete control, preemergence; for Plant response rating, Lambsquarters / Lambsquarters plant response rating: visual rating; for Lambsquarters plant response rating: postemergence, scale 0 (no effect) to 100 (complete control)
Summary of the method: as §2

[8] = test system: morningglory; assay: Test B pre-/postemergence herbicide test; type: in vivo, Ipomoea coccinea; settings: for Morningglory plant response rating (0 to 100 scale) / Plant response rating, Morningglory: 0 = no effect, 100 = complete control, preemergence; for Plant response rating, Morningglory / Morningglory plant response rating: visual rating; for Morningglory plant response rating: postemergence, scale 0 (no effect) to 100 (complete control)
Summary of the method: as §1

[9] = test system: pigweed; assay: Test B pre-/postemergence herbicide test; type: in vivo, Amaranthus retroflexus; settings: for Pigweed plant response rating (0 to 100 scale) / Plant response rating, Pigweed: 0 = no effect, 100 = complete control, preemergence; for Plant response rating, Pigweed / Pigweed plant response rating: visual rating; for Pigweed plant response rating: postemergence, scale 0 (no effect) to 100 (complete control)
Summary of the method: as §2

[10] = test system: blackgrass; assay: Test B postemergence herbicide test; type: in vivo, Alopecurus myosuroides; settings: postemergence, visual rating, scale 0 (no effect) to 100 (complete control)
Summary of the method: (§3)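 Visual ratings, 0 (no effect) to 100 (complete control), made versus controls after 13–15 d greenhouse. Paddy plants treated at 2-leaf stage; postemergence plants at 1- to 4-leaf stage, 2–18 cm tall.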

[11] = test system: wheat; assay: Test B postemergence herbicide test; type: in vivo, Triticum aestivum; parameters: key to Wheat plant response rating: 0 = no effect, 100 = complete control; settings: postemergence, visual rating, scale 0 (no effect) to 100 (complete control)
Summary of the method: (§4)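 Formulated test chemicals went onto postemergence plants measuring 2 to 18 cm, at one to four leaves. For the paddy assay, species had reached two leaves. Scoring took place 13–15 days later by eye, relative to untreated plants, using 0 for no effect up to 100 for full control.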

[12] = test system: wild oat; assay: Test B postemergence herbicide test; type: in vivo, Avena fatua; settings: postemergence, visual rating, scale 0 (no effect) to 100 (complete control)
Summary of the method: as §4

[13] = test system: rice; assay: Test B flooded paddy test; type: in vivo, Oryza sativa; settings: 1000 g ai/ha, visual rating, scale 0 to 100 (0 no effect, 100 complete control), 13 to 15 days
Summary of the method: as §3

[14] = test system: small flower umbrella sedge; assay: Test B flooded paddy test; type: in vivo, Cyperus difformis; settings: 1000 g ai/ha, visual rating, scale 0 to 100 (0 no effect, 100 complete control), 13 to 15 days
Summary of the method: as §3

[15] = test system: ducksalad; assay: Test B flooded paddy test; type: in vivo, Heteranthera limosa; settings: 1000 g ai/ha, visual rating, scale 0 to 100 (0 no effect, 100 complete control), 13 to 15 days
Summary of the method: as §3

[16] = test system: barnyardgrass; assay: Test B flooded paddy test; type: in vivo, Echinochloa crus-galli; settings: 1000 g ai/ha, visual rating, scale 0 to 100 (0 no effect, 100 complete control), 13 to 15 days
Summary of the method: as §3

CCNC(=O)c1cccc(NC(=O)c2sc(C(C)(C)C)nc2CC)n1 [Compound 213]
100: Plant response rating, Lambsquarters ([7]; 500 g ai/ha) | Plant response rating, Pigweed ([9]; 500 g ai/ha)
50: Barnyardgrass plant response rating ([1]; 500 g ai/ha)
0: Barnyardgrass plant response rating ([1]; 125 g ai/ha) | Surinam Grass plant response rating (0 to 100 scale) ([2]; 125 g ai/ha) | Cocklebur plant response rating (0 to 100 scale) ([3]; 125 g ai/ha) | Plant response rating, Cocklebur ([3]; 500 g ai/ha) | Cocklebur plant response rating ([3]; 125 g ai/ha) | Corn plant response rating (0 to 100 scale) ([4]; 125 g ai/ha) | Corn plant response rating ([4]; 125 g ai/ha) | Crabgrass, Large plant response rating ([5]; 125 g ai/ha) | Foxtail, Giant plant response rating ([6]; 125 g ai/ha) | Lambsquarters plant response rating ([7]; 125 g ai/ha) | Morningglory plant response rating (0 to 100 scale) ([8]; 125 g ai/ha) | Pigweed plant response rating ([9]; 125 g ai/ha) | Wheat plant response rating ([11]; 125 g ai/ha)
90: Plant response rating, Foxtail, Giant ([6]; 500 g ai/ha)
80: Plant response rating, Barnyardgrass ([1]; 500 g ai/ha) | Sedge, Umbrella plant response rating [14]
20: Surinam Grass plant response rating ([2]; 500 g ai/ha) | Corn plant response rating ([4]; 500 g ai/ha) | Foxtail, Giant plant response rating (0 to 100 scale) ([6]; 125 g ai/ha) | Plant response rating, Morningglory ([8]; 500 g ai/ha) | Pigweed plant response rating ([9]; 500 g ai/ha) | Blackgrass plant response rating ([10]; 125 g ai/ha) | Oat, Wild plant response rating ([12]; 500 g ai/ha)
10: Barnyardgrass plant response rating (0 to 100 scale) ([1]; 125 g ai/ha) | Surinam Grass plant response rating ([2]; 125 g ai/ha) | Plant response rating, Corn ([4]; 500 g ai/ha) | Crabgrass, Large plant response rating (0 to 100 scale) ([5]; 125 g ai/ha) | Morningglory plant response rating ([8]; 125 g ai/ha) | Oat, Wild plant response rating ([12]; 125 g ai/ha)
40: Plant response rating, Surinam Grass ([2]; 500 g ai/ha) | Lambsquarters plant response rating ([7]; 500 g ai/ha) | Blackgrass plant response rating ([10]; 500 g ai/ha) | Rice plant response rating [13]
70: Cocklebur plant response rating ([3]; 500 g ai/ha) | Plant response rating, Crabgrass, Large ([5]; 500 g ai/ha) | Ducksalad plant response rating [15]
60: Barnyardgrass plant response rating [16]
30: Crabgrass, Large plant response rating ([5]; 500 g ai/ha) | Foxtail, Giant plant response rating ([6]; 500 g ai/ha) | Lambsquarters plant response rating (0 to 100 scale) ([7]; 125 g ai/ha) | Morningglory plant response rating ([8]; 500 g ai/ha) | Pigweed plant response rating (0 to 100 scale) ([9]; 125 g ai/ha) | Wheat plant response rating ([11]; 500 g ai/ha)

CCc1nn(C(C)(C)C)cc1C(=O)Nc1cc(C(=O)N(CC)CC)ccc1F [Compound 223]
30: Cocklebur plant response rating ([3]; 500 g ai/ha) | Plant response rating, Morningglory ([8]; 500 g ai/ha) | Oat, Wild plant response rating ([12]; 500 g ai/ha)
70: Pigweed plant response rating ([9]; 500 g ai/ha) | Rice plant response rating [13]
60: Lambsquarters plant response rating ([7]; 125 g ai/ha) | Pigweed plant response rating ([9]; 125 g ai/ha)
0: Cocklebur plant response rating (0 to 100 scale) ([3]; 125 g ai/ha) | Blackgrass plant response rating ([10]; 125 g ai/ha) | Blackgrass plant response rating ([10]; 500 g ai/ha) | Wheat plant response rating ([11]; 125 g ai/ha) | Wheat plant response rating ([11]; 500 g ai/ha) | Oat, Wild plant response rating ([12]; 125 g ai/ha)
80: Plant response rating, Barnyardgrass ([1]; 500 g ai/ha) | Plant response rating, Corn ([4]; 500 g ai/ha) | Plant response rating, Foxtail, Giant ([6]; 500 g ai/ha) | Lambsquarters plant response rating (0 to 100 scale) ([7]; 125 g ai/ha) | Lambsquarters plant response rating ([7]; 500 g ai/ha) | Morningglory plant response rating ([8]; 500 g ai/ha) | Sedge, Umbrella plant response rating [14]
20: Barnyardgrass plant response rating (0 to 100 scale) ([1]; 125 g ai/ha) | Barnyardgrass plant response rating ([1]; 500 g ai/ha) | Surinam Grass plant response rating (0 to 100 scale) ([2]; 125 g ai/ha) | Plant response rating, Cocklebur ([3]; 500 g ai/ha) | Corn plant response rating ([4]; 500 g ai/ha) | Crabgrass, Large plant response rating ([5]; 500 g ai/ha) | Foxtail, Giant plant response rating ([6]; 500 g ai/ha)
90: Plant response rating, Surinam Grass ([2]; 500 g ai/ha) | Pigweed plant response rating (0 to 100 scale) ([9]; 125 g ai/ha) | Ducksalad plant response rating [15]
100: Plant response rating, Crabgrass, Large ([5]; 500 g ai/ha) | Plant response rating, Lambsquarters ([7]; 500 g ai/ha) | Plant response rating, Pigweed ([9]; 500 g ai/ha)
40: Morningglory plant response rating ([8]; 125 g ai/ha) | Barnyardgrass plant response rating [16]
10: Barnyardgrass plant response rating ([1]; 125 g ai/ha) | Surinam Grass plant response rating ([2]; 125 g ai/ha) | Surinam Grass plant response rating ([2]; 500 g ai/ha) | Cocklebur plant response rating ([3]; 125 g ai/ha) | Corn plant response rating (0 to 100 scale) ([4]; 125 g ai/ha) | Corn plant response rating ([4]; 125 g ai/ha) | Crabgrass, Large plant response rating ([5]; 125 g ai/ha) | Foxtail, Giant plant response rating (0 to 100 scale) ([6]; 125 g ai/ha) | Foxtail, Giant plant response rating ([6]; 125 g ai/ha) | Morningglory plant response rating (0 to 100 scale) ([8]; 125 g ai/ha)
50: Crabgrass, Large plant response rating (0 to 100 scale) ([5]; 125 g ai/ha)

From US20060069132A1, “Azolecarboxamide herbicides” (priority 2004, published 2006)
